The test system of assay [1] is laser-induced choroid coat angiogenesis. Kind of assay: Mouse model of laser-induced choroid coat angiogenesis, WT1 peptide vaccine (Example 1). The class given is in vivo, mouse (C57BL/6J).
Protocol: Male C57BL/6J mice (provided by CLEA Japan, Inc.) were used. At the beginning of the experiment, the mice were 8 weeks old (body weight: about 20 to 25 g). The mice were free-fed with laboratory chow (manufactured by Oriental Yeast Co., Ltd.) and tap water. Six mice were used for each administration group.
The resultant was diluted to 0.227 or 2.27 mg/mL with sterilized PBS. The resultant WT1 solution and Montanide ISA51 VG were mixed so that the volume ratio was 1:1.27 to prepare emulsions of 0.1 μg/μL, 1 μg/μL, and 10 μg/μL. Each of the emulsions was intracutaneously administered at 10 μL/body. Administered doses were 1 μg/body, 10 μg/body, and 100 μg/body. Timing of administrations were on 15, 22, 29, and 36 days after photocoagulation.
Specifically, with respect to the mice of administration groups (groups 1 to 4) administered with the test substance (WT1 peptide), the administration was carried out through the following procedure.
(1) Grouping was carried out on the basis of area of fluorescence leakage on 14 days after the photocoagulation.
(3) Abdomen was shaved with hair clippers, and then intracutaneous administration was carried out using a 30 G injection needle.
(3) Photocoagulation was carried out using Multi Color Laser Photocoagulator (red) (manufactured by NIDEK CO., LTD.) under the following coagulation conditions: spot size of 50 μm, output of 60 mW, and coagulation time of 0.1 second. […]
(2) Dilatation of pupils was carried out with Mydrin-P, and then general anesthesia was performed by intramuscular administration at 1 mL/kg of a mixture of Ketalar injection (manufactured by DAIICHI SANKYO COMPANY, LIMITED) and Celactal injection (manufactured by Bayer) (7:1). (3) Fluorescite (Manufactured by Alcon, Inc.) was injected at 0.1 mL/kg via the tail vein, and then fluorescence ocular fundus angiography was carried out using Micron III. (4) An area of fluorescence leakage was calculated using an image analysis software. […]
Assay [2] relates to choroidal neovascular area. Kind of assay: Mouse laser-induced choroidal neovascularization, WT1235m and WT1332 (Example 2). Type of assay: in vivo, mouse (CBF-1). As to conditions: 200 μg/body intracutaneous, 4 administrations, FIG. 5; for choroidal neovascular area compared to PBS administration group: time course 2 to 6 weeks. Here is the method:
Two species of WT1 peptides: WT1235m ([…](SEQ ID NO: 19)) and WT1332 ([…](SEQ ID NO: 32)) were used as test substances, and following setting of administration groups were provided to conduct an experiment in the same method and procedure as Example 1. The WT1235m was a peptide in which methionine in position 2 of WT1235 (SEQ ID NO: 9) was replaced with tyrosine.
Fluorescence ocular fundus angiography was carried out at 2 weeks, 3 weeks, 4 weeks, 5 weeks, and 6 weeks after the photocoagulation to analyze time-dependent change of choroidal neovascular area. […] In WT1332 administration group, choroidal neovascular area at 6 weeks after the photocoagulation was reduced to about 70% of choroidal neovascular area at 2 weeks after the photocoagulation.

Experimental findings from patent US11413322B2, “Immunotherapy for angiogenic disease” (International Institute of Cancer Immunology, Inc., priority 2014, dated 2022) are described below.

“Also recorded” adds a separate entry of the source. Ends that are not written are not given here.

APVLDFAPPGASAYGSLG [WT135, WT1 peptide]: the “choroidal neovascular area at 6 weeks after the photocoagulation relative to area at 2 weeks after the photocoagulation” value in assay [1] (WT135 group, dose not specified (1, 10, 100 μg/body applied), intracutaneous, FIG. 4) is listed as “about 50%”. For the same sequence, the “choroidal neovascular area, change with administration (vs PBS administration group)” value in assay [1] (any applied dose of 1, 10 and 100 μg/body intracutaneous, time course 2 to 6 weeks, FIG. 3, FIG. 4) is listed as “Decrease in choroidal neovascular area; also recorded: decreasing trend”.
Consider CYTWNQMNL [WT1235m], for which the “choroidal neovascular area at 6 weeks after the photocoagulation compared with 2 weeks (in words)” value in assay [2] (CBF-1 mice) is “the same as that at 2 weeks after the photocoagulation”. Also, the “choroidal neovascular area compared to PBS administration group” value in assay [2] is “Decrease in choroidal neovascular area”.
As to KRYFKLSHLQMHSRKH [WT1332, WT1 peptide], the “choroidal neovascular area at 6 weeks after the photocoagulation relative to area at 2 weeks after the photocoagulation” value in assay [2] (CBF-1 mice) is reported as “about 70%”. Besides, in assay [2], the “choroidal neovascular area compared to PBS administration group” value was “Decrease in choroidal neovascular area”.
